# Laboratory results published in ChEMBL document CHEMBL1133639, “Subtype-selective N-methyl-D-aspartate receptor antagonists: synthesis and biological evaluation of 1-(heteroarylalkynyl)-4-benzylpiperidines” (J Med Chem, 2000).
# How the values were obtained:
# [1] = target: Glutamate receptor ionotropic, NMDA 1 (Homo sapiens, UniProt Q05586+Q12879); assay: Concentration required for 50% Inhibition of responses at cloned NR1A/2A NMDA expressed in Xenopus oocytes; type: cell-based, Oocyte
# [2] = target: Glutamate receptor ionotropic, NMDA 1 (Homo sapiens, UniProt Q05586+Q14957); assay: Concentration required for 50% Inhibition of responses at cloned NR1A/2C NMDA expressed in Xenopus oocytes; type: cell-based, Oocyte
# [3] = target: Glutamate receptor ionotropic, NMDA 1 (Homo sapiens, UniProt Q05586); assay: Concentration required for 50% Inhibition of responses at cloned NR1A/2AB NMDA expressed in Xenopus oocytes; type: cell-based, Oocyte
# [4] = target: Glutamate receptor ionotropic, NMDA 2C (Rattus norvegicus, UniProt P35439+Q00961); assay: Concentration required for 50% Inhibition of responses at cloned NR1A/2C N-methyl-D-aspartate (NMDA) expressed in Xenopus oocytes; type: cell-based, Oocyte
# Glutamate receptor ionotropic, NMDA 2C, sequence (Q00961 whole entry, one chain of several): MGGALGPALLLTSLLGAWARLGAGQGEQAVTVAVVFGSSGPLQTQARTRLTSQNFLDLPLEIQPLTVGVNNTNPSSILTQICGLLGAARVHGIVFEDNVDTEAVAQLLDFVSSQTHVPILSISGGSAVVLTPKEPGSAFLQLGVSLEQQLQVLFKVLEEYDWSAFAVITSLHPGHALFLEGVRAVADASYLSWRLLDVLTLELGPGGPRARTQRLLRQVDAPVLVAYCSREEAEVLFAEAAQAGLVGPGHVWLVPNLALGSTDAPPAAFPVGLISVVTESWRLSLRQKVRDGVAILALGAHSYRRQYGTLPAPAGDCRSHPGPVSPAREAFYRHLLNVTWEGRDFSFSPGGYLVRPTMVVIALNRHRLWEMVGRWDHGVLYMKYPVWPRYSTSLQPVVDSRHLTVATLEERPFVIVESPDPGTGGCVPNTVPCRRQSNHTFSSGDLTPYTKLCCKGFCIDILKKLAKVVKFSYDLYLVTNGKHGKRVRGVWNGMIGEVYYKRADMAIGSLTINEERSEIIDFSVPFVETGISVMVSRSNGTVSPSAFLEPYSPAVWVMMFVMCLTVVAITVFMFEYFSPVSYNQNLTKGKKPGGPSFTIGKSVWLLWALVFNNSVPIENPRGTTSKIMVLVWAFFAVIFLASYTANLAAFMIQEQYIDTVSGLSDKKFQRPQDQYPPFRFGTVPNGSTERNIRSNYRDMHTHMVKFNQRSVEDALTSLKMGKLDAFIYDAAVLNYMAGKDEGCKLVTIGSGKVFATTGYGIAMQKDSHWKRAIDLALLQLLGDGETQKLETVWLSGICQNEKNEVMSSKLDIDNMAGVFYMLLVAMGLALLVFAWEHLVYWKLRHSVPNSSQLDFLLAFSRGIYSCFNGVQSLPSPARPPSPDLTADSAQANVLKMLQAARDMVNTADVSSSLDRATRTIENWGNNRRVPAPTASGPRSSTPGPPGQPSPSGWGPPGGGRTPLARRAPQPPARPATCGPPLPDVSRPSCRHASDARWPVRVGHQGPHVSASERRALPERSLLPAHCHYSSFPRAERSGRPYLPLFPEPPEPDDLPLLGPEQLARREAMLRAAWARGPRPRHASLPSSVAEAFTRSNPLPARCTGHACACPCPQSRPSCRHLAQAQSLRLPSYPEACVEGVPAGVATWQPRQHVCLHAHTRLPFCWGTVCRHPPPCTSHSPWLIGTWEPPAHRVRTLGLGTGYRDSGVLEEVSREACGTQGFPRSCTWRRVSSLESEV
# [5] = target: D(2) dopamine receptor (Rattus norvegicus, UniProt P61169); assay: Displacement of [3H]raclopride at Dopamine receptor D2 in brain striata (n=1); type: tissue-based
# D(2) dopamine receptor, sequence (P61169 whole entry): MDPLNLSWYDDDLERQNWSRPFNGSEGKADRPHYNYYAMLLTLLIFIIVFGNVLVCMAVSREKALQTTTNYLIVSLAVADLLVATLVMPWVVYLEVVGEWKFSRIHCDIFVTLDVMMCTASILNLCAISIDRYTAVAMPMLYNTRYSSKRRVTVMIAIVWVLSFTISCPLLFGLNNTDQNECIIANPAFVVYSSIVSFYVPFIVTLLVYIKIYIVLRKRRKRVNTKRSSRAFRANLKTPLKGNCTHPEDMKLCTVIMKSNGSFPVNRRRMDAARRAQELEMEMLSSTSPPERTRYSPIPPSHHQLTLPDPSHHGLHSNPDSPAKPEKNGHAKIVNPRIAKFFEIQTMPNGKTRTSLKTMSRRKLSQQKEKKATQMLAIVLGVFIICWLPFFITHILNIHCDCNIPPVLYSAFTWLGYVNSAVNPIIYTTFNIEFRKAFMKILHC
# [6] = tested on: Rattus norvegicus; assay: Lowest oral dose that shows significant potentiation of total contraversive rotations over 3 hr caused by L-DOPA (10mg/kg, sc) in 6-hydroxydopamine-lesioned rats (n=8)administered perorally; type: functional; settings: read-out: MED
# [7] = target: T1, Adrenergic receptor alpha-1 (Rattus norvegicus, UniProt P15823+P23944+P43140); assay: Displacement of [3H]prazosin at alpha-1 adrenergic receptor in rat brain cortices (n=1); type: tissue-based
# T1 sequence (P15823 whole entry): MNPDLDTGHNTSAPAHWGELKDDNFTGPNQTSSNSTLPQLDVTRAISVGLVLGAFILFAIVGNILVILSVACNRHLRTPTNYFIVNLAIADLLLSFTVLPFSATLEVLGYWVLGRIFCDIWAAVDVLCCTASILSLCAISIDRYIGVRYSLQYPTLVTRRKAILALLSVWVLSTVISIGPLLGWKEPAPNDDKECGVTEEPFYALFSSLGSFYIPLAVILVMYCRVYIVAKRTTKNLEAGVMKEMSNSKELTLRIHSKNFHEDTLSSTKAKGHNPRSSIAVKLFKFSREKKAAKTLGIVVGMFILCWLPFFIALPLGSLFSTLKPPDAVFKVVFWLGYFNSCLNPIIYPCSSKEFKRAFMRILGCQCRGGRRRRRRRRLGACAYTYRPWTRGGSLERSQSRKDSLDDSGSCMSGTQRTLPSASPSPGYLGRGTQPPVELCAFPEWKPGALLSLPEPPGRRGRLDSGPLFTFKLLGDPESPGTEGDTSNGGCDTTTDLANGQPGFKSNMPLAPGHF
# T1 sequence (P23944 whole entry): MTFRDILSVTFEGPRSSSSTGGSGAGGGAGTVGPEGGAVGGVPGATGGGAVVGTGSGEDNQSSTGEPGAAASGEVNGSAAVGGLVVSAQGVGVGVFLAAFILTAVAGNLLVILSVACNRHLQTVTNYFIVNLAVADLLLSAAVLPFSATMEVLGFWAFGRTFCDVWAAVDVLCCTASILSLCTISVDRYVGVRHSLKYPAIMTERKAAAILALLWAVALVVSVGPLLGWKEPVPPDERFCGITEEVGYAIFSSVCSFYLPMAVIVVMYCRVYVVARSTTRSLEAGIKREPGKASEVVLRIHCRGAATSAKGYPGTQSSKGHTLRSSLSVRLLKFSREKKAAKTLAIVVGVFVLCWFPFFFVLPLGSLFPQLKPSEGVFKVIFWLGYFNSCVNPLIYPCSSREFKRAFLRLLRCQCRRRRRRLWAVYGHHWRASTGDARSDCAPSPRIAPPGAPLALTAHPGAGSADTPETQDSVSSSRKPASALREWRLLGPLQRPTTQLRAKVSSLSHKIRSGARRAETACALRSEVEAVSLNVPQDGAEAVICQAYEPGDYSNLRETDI
# T1 sequence (P43140 whole entry): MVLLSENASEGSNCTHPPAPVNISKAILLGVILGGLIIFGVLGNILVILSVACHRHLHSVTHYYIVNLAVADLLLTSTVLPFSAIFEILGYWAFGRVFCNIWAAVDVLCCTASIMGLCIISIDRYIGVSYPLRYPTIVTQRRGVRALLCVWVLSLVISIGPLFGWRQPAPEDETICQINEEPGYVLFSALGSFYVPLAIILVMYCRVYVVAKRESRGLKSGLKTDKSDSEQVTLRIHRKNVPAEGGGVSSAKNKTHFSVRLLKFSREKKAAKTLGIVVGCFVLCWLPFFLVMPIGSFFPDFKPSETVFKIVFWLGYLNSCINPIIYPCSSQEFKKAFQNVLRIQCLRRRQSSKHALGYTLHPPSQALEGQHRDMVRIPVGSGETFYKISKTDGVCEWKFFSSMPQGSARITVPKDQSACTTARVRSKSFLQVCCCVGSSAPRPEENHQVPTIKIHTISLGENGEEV
# [8] = target: Glutamate NMDA receptor; Grin1/Grin2a (Rattus norvegicus, UniProt P35439+Q00959); assay: Concentration required for 50% Inhibition of responses at cloned NR1A/2A N-methyl-D-aspartate (NMDA) expressed in Xenopus oocytes; type: cell-based, Oocyte
# Glutamate NMDA receptor; Grin1/Grin2a, sequence (Q00959 whole entry, looked up, other chains not shown): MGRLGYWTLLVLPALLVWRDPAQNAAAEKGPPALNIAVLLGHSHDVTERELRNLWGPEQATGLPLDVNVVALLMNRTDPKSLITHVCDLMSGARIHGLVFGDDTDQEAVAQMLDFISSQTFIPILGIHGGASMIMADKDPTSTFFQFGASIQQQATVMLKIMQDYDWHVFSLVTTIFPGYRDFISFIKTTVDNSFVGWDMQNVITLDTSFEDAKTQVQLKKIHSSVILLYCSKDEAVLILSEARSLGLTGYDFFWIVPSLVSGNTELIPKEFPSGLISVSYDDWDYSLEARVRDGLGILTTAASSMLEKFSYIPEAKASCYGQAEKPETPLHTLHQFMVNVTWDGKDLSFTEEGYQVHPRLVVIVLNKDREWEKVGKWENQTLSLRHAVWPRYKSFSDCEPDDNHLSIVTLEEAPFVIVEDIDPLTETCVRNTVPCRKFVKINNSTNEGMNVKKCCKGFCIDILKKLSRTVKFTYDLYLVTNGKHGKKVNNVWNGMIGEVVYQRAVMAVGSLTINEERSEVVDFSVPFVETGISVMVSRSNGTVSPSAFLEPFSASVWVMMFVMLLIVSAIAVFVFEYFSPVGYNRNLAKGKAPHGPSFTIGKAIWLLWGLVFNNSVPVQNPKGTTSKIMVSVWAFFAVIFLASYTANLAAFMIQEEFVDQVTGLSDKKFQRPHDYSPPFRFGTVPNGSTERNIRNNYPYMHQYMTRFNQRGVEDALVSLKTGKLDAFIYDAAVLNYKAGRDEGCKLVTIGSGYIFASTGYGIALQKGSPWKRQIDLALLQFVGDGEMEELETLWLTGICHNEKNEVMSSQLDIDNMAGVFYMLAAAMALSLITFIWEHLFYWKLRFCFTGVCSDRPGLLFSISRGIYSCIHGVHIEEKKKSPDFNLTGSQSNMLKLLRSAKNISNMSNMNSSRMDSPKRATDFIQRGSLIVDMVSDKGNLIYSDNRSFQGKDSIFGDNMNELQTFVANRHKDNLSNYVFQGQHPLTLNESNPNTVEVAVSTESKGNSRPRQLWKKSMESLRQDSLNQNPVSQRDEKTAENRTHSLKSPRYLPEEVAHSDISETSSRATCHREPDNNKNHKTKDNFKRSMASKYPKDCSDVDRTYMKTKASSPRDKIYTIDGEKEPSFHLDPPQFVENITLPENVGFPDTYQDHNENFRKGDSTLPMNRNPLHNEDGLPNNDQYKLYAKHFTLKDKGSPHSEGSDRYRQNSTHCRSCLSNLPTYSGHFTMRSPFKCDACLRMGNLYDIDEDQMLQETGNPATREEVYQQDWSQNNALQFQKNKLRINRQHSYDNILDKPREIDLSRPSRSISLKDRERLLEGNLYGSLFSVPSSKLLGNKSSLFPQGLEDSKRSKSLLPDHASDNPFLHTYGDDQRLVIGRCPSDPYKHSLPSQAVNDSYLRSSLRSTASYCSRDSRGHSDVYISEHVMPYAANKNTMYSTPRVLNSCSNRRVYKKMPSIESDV
# [9] = target: T1, Adrenergic receptor alpha-1; assay: Displacement of [3H]-prazosin at alpha-1 adrenergic receptor inat brain cortices (n=1)
# [10] = tested on: Rattus norvegicus; assay: Lowest oral dose that shows significant potentiation of total contraversive rotations over 3 hr caused by L-DOPA (10mg/kg, sc) in 6-hydroxydopamine-lesioned rats (n=8) administered perorally; type: functional; settings: read-out: MED
# [11] = tested on: Rattus norvegicus; assay: Lowest oral dose that shows significant potentiation of total contraversive rotations over 3 hr caused by L-DOPA (10mg/kg, sc) in 6-hydroxydopamine-lesioned rats (n=8);administered perorally; type: functional; settings: read-out: MED
Compound,IC50 [1] [µM],IC50 [2] [µM],IC50 [3] [µM],IC50 [5] [µM],also measured
O=c1[nH]c2ccc(C#CCCN3CCC(Cc4ccccc4)CC3)cc2o1,39,> 100,0.12,–,–
C(#Cc1ccc2[nH]ccc2c1)CN1CCC(Cc2ccccc2)CC1,> 100,> 100,15,–,–
O=C1Nc2ccc(C#CCCN3CCC(Cc4ccccc4)CC3)cc2C1=O,57,–,1.8,–,IC50 [4]: > 100 µM
Cn1c(=O)[nH]c2cc(C#CCN3CCC(Cc4ccccc4)CC3)ccc21,89,> 100,62,–,–
C(#Cc1ccc2nn[nH]c2c1)CCN1CCC(Cc2ccccc2)CC1,> 100,> 100,0.22,–,–
C(#Cc1ccc2[nH]ncc2c1)CN1CCC(Cc2ccccc2)CC1,> 100,> 100,0.38,–,–
Cn1c(=O)[nH]c2ccc(C#CCN3CCC(Cc4ccccc4)CC3)cc21,–,> 100,–,–,–
O=C1Cc2cc(C#CCCN3CCC(Cc4ccccc4)CC3)ccc2N1,52,> 100,0.32,–,–
C(#Cc1ccc2[nH]nnc2c1)CN1CCC(Cc2ccccc2)CC1,> 100,> 100,0.42,–,–
S=c1[nH]c2ccc(C#CCCN3CCC(Cc4ccccc4)CC3)cc2[nH]1,75,> 100,0.18,–,–
S=c1[nH]c2ccc(C#CCN3CCC(Cc4ccccc4)CC3)cc2[nH]1,25,> 100,0.016,–,–
O=C1Cc2cc(C#CCN3CCC(Cc4ccccc4)CC3)ccc2N1,> 100,> 100,0.11,–,–
Oc1nc2cc(C#CCN3CCC(Cc4ccccc4)CC3)ccc2[nH]1,–,–,–,2.6,minimal effective dose [6]: 10 mg/kg; IC50 [7]: 0.5 µM
C(#Cc1ccc2cc[nH]c2c1)CCN1CCC(Cc2ccccc2)CC1,–,–,–,–,IC50 [4]: > 100 µM; IC50 [8]: > 100 µM
O=c1[nH]c2ccc(C#CCCN3CCC(Cc4ccccc4)CC3)cc2[nH]1,39,> 100,0.089,–,–
Oc1nc2cc(C#CCN3CCC(Cc4ccc(F)cc4)CC3)ccc2[nH]1,38,> 100,0.0082,1.7,minimal effective dose [6]: 30 mg/kg; IC50 [7]: 1.2 µM
Oc1nc2cc(C#CCN3CCC(O)(Cc4ccc(F)cc4)CC3)ccc2[nH]1,–,–,–,41,IC50 [9]: 18 µM; minimal effective dose [10]: > 30 mg/kg
Oc1nc2cc(C#CCN3CCC(Cc4cccc(F)c4)CC3)ccc2[nH]1,> 100,> 100,0.0061,3.9,minimal effective dose [6]: > 30 mg/kg; IC50 [7]: 0.7 µM
C(#Cc1ccc2[nH]ncc2c1)CCN1CCC(Cc2ccccc2)CC1,95,> 100,0.25,–,–
O=C1COc2cc(C#CCCN3CCC(Cc4ccccc4)CC3)ccc2N1,> 100,> 100,1.1,–,–
Oc1nc2cc(C#CCN3CCC(Cc4ccc(Cl)cc4)CC3)ccc2[nH]1,–,–,0.019,3.7,minimal effective dose [11]: 30 mg/kg; IC50 [7]: 5.8 µM
Oc1nc2ccc(C#CCN3CCC(Cc4ccccc4)CC3)cc2o1,–,–,0.049,–,–
COc1ccc(CC2CCN(CC#Cc3ccc4[nH]c(O)nc4c3)CC2)cc1,> 100,> 100,0.026,9.9,minimal effective dose [6]: > 30 mg/kg; IC50 [7]: 17 µM
Oc1nc2cc(C#CCN3CCC(O)(Cc4ccccc4)CC3)ccc2[nH]1,> 100,> 100,0.019,86,IC50 [7]: 55 µM
Cc1ccc(CC2CCN(CC#Cc3ccc4[nH]c(O)nc4c3)CC2)cc1,–,–,0.017,14,minimal effective dose [6]: 30 mg/kg; IC50 [7]: 3.1 µM
Oc1ccc(C#CCN2CCC(Cc3ccccc3)CC2)cc1,–,–,–,–,IC50 [4]: > 100 µM; IC50 [8]: > 100 µM
